Reference: patent US20240270698A2, “NOVEL PYRIMIDINE DERIVATIVE AND USE THEREOF” (KOREA RESEARCH INSTITUTE OF CHEMICAL TECHNOLOGY, priority 2019, published 2024)

Columns and labels:
HS746T cancer cells = assay: Anticancer activity, cell viability by CCK-8, HS746T; type: cell-based; conditions: 72 hours
Summary of the method: (§1)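 HS746T or HepG2 cells seeded at 4,000 cells/well, left 24 h, then exposed to compounds for 72 h. Viability measured by CCK-8 and expressed as % of untreated control.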

HepG2 cancer cells = assay: Anticancer activity, cell viability by CCK-8, HepG2; type: cell-based; conditions: HepG2, 10 μM, 72 hours
Summary of the method: as §1

[1] = molecular target: T1, human recombinant LRRK2 protein (Homo sapiens, UniProt Q5S007); assay: LRRK2 kinase activity assay (Eurofins, gamma-33P-ATP, filtermat scintillation counting); type: biochemical; conditions: human recombinant LRRK2, 40 minutes at room temperature
T1 construct: purchased Eurofins
T1 sequence (Q5S007 whole entry): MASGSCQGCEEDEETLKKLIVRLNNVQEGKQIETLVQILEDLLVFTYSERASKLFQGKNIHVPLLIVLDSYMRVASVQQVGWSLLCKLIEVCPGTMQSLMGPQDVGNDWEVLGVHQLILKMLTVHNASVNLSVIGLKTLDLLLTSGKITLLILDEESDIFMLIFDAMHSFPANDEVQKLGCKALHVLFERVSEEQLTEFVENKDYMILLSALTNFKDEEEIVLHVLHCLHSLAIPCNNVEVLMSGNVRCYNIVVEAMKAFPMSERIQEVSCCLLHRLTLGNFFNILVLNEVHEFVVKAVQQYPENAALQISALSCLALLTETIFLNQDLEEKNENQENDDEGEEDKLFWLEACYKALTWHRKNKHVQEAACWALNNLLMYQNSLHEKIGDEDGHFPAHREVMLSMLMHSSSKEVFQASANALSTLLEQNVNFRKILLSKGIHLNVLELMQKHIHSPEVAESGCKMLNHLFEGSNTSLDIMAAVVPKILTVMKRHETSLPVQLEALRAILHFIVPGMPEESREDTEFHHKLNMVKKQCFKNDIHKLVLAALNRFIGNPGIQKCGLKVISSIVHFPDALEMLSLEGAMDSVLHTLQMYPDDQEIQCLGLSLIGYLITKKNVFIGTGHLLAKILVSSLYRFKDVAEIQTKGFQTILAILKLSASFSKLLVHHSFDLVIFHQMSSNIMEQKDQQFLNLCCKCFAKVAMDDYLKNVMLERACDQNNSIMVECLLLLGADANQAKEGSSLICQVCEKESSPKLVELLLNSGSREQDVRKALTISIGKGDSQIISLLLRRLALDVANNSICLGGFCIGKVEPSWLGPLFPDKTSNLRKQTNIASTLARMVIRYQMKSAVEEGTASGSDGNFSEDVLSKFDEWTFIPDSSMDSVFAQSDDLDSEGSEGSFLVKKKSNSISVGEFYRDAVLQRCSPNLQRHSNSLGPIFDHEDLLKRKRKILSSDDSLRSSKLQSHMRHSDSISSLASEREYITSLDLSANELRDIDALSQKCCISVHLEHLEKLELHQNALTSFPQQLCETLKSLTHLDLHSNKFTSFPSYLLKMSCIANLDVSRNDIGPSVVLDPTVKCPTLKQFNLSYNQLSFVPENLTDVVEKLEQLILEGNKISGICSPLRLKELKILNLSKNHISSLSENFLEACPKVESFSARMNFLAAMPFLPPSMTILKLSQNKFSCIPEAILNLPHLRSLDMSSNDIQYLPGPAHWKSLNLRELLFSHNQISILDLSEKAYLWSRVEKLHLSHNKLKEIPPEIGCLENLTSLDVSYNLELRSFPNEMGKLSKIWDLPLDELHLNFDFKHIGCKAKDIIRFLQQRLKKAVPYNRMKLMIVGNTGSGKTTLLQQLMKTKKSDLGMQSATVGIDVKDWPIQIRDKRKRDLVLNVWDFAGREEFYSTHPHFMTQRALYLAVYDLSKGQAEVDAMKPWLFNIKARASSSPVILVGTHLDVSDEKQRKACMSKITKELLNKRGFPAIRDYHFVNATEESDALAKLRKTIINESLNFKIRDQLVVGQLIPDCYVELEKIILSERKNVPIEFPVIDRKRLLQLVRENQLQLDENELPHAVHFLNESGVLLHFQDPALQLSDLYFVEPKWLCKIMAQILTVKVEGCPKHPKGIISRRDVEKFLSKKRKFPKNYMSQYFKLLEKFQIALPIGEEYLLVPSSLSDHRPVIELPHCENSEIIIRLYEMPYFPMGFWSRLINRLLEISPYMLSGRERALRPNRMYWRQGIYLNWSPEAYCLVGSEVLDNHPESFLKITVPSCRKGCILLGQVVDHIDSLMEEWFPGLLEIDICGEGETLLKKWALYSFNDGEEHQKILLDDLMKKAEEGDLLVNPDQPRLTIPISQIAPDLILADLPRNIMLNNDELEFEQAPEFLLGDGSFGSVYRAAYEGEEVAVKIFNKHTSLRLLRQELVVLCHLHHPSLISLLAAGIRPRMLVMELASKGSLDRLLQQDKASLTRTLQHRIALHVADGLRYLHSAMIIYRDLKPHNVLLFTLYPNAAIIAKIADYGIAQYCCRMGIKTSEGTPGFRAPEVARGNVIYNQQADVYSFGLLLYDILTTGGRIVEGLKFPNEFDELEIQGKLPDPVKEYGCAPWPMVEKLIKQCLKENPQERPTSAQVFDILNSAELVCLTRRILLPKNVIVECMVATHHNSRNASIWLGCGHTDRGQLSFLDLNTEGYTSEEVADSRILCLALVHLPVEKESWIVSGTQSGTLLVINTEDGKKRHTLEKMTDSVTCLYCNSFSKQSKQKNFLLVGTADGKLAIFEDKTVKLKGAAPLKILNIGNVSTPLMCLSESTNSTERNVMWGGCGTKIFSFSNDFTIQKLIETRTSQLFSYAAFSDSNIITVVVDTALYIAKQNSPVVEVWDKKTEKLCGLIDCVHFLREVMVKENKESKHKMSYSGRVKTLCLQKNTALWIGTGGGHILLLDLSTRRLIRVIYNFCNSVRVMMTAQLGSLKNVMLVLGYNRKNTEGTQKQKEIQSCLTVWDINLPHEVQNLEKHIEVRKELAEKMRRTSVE

[2] = molecular target: T2, human recombinant MLK3 protein (Homo sapiens, UniProt Q16584); assay: MLK3 kinase activity assay (Eurofins, gamma-33P-ATP, filtermat scintillation counting); type: biochemical; conditions: human recombinant MLK3, 120 minutes at room temperature
T2 construct: purchased Eurofins
T2 sequence (Q16584 whole entry): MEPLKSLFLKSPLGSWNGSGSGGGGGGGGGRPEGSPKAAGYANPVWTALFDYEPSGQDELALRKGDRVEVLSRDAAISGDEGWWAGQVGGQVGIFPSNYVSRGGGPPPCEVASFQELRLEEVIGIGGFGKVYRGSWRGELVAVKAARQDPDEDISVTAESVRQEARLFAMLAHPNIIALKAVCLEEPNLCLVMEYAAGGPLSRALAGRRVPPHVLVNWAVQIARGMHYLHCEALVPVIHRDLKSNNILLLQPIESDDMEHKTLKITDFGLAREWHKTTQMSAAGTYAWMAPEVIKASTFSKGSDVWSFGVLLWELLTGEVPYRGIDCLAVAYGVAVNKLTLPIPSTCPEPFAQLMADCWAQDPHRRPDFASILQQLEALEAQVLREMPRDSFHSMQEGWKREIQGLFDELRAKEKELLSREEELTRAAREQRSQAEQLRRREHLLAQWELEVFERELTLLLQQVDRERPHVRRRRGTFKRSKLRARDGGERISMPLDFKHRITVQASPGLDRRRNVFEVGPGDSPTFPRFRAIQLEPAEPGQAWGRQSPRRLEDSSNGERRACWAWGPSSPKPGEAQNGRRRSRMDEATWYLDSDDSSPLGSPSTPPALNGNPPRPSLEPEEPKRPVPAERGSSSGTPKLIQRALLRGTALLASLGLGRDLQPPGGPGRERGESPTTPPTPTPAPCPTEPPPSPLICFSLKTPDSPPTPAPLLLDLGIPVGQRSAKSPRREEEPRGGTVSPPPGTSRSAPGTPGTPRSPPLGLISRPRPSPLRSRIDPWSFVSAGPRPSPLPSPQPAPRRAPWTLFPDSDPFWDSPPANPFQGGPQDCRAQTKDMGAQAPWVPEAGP

SMILES	IC50 [1] [nM]	IC50 [2] [nM]	Cell viability (% of Con. 10 μM) HS746T (HS746T cancer cells)	Cell viability (% of Con. 10 μM) HepG2 (HepG2 cancer cells)
CP(C)(=O)c1ccccc1Nc1nc(NC2CCCCC2)ncc1Cl [compound 16, (2-((5-Chloro-2-(cyclohexylamino)pyrimidin-4-yl)amino)phenyl) dimethylphosphine oxide]	> 1000	> 1000	64 % of Con.	82 % of Con.
CC1c2cc(Nc3ncc(Cl)c(Nc4ccccc4P(C)(C)=O)n3)ccc2CCN1C(=O)C(F)(F)F (centres unmarked) [compound 54, 1-(7-((5-Chloro-4-((2-(dimethylphosphoryl)phenyl)amino)pyrimidin-2-yl)amino)-1-methyl-3,4-dihydroisoquinolin-2(1H)-yl)-2,2,2-trifluoroethan-1-one]	1 to 10	1 to 10	4 % of Con.	17 % of Con.
CP(C)(=O)c1ccccc1Nc1nc(Nc2ccc3c(c2)CN(C(=O)C(F)(F)F)CC3)ncc1Cl [compound 46, 1-(7-((5-Chloro-4-((2-(dimethylphosphoryl)phenyl)amino)pyrimidin-2-yl)amino)-3,4-dihydroisoquinolin-2(1H)-yl)-2,2,2-trifluoroethan-1-one]	1 to 10	1 to 10	13 % of Con.	26 % of Con.
CS(=O)(=O)N1CCC(Nc2nc(Nc3ccnc4c(F)cccc34)ncc2F)CC1 [compound 38, 5-Fluoro-N^2-(8-fluoroquinolin-4-yl)-N^4-(1-(methylsulfonyl)piperidin-4-yl)pyrimidine-2,4-diamine]	100 to 1000	> 1000	90 % of Con.	73 % of Con.
CC1(C)c2cc(Nc3ncc(Cl)c(Nc4ccccc4P(C)(C)=O)n3)ccc2CCN1C(=O)C(F)(F)F [compound 42, 1-(7-((5-Chloro-4-((2-(dimethylphosphoryl)phenyl)amino)pyrimidin-2-yl)amino)-1,1-dimethyl-3,4-dihydroisoquinolin-2(1H)-yl)-2,2,2-trifluoroethan-1-one]	1 to 10	1 to 10	30 % of Con.	48 % of Con.
CC1NCCc2ccc(Nc3ncc(Cl)c(Nc4ccccc4P(C)(C)=O)n3)cc21 (centres unmarked) [compound 51, (2-((5-Chloro-2-((1-methyl-1,2,3,4-tetrahydroisoquinolin-7-yl)amino)pyrimidin-4-yl)amino)phenyl)dimethylphosphine oxide]	1 to 10	1 to 10	2 % of Con.	24 % of Con.
CC(C)C1NCCc2ccc(Nc3ncc(Cl)c(Nc4ccccc4P(C)(C)=O)n3)cc21 (centres unmarked) [compound 55, (2-((5-Chloro-2-((1-isopropyl-1,2,3,4-tetrahydroisoquinolin-7-yl)amino)pyrimidin-4-yl)amino)phenyl)dimethylphosphine oxide]	1 to 10	1 to 10	2 % of Con.	19 % of Con.
CN(C)c1ncc(F)c(NC2CCN(S(C)(=O)=O)CC2)n1 [compound 37, 5-Fluoro-N^2,N^2-dimethyl-N^4-(1-(methylsulfonyl)piperidin-4-yl) pyrimidine-2,4-diamine]	> 1000	> 1000	90 % of Con.	100 % of Con.
COc1cc2c(cc1Nc1ncc(Cl)c(Nc3ccccc3P(C)(C)=O)n1)CN(C(=O)C(F)(F)F)CC2 [compound 62, 1-(7-((5-chloro-4-((2-(dimethylphosphoryl)phenyl)amino)pyrimidin-2-yl)amino)-6-methoxy-3,4-dihydroisoquinolin-2(1H)-yl)-2,2,2-trifluoroethan-1-one]	1 to 10	1 to 10	13 % of Con.	26 % of Con.
CP(C)(=O)c1ccccc1Nc1ncc(Cl)c(Nc2ccccc2P(C)(C)=O)n1 [compound 30, (((5-Chloropyrimidin-2,4-diyl)bis(azanediyl))bis(2,1-phenylene)) bis(dimethylphosphineoxide)]	> 1000	> 1000	85 % of Con.	102 % of Con.
CP(C)(=O)c1ccccc1Nc1nc(Nc2ccc3c(c2)CNCC3)ncc1Cl [compound 47, (2-((5-Chloro-2-((1,2,3,4-tetrahydroisoquinolin-7-yl)amino)pyrimidin-4-yl)amino)phenyl)dimethylphosphine oxide]	1 to 10	1 to 10	8 % of Con.	24 % of Con.

More lines, main results first:

IC50 [1] [nM]	IC50 [2] [nM]	SMILES	Cell viability (% of Con. 10 μM) HS746T (HS746T cancer cells)	Cell viability (% of Con. 10 μM) HepG2 (HepG2 cancer cells)
10 to 100	1 to 10	COc1cc(Cl)cc(-c2n[nH]c3ccc(Nc4ncc(Cl)c(Nc5ccccc5P(C)(C)=O)n4)cc23)c1 [compound 113, (2-((5-Chloro-2-((3-(3-chloro-5-methoxyphenyl)-1H-indazol-5-yl)amino)pyrimidin-4-yl)amino)phenyl)dimethylphosphine oxide]	26 % of Con.	16 % of Con.
> 1000	> 1000	CP(C)(=O)c1ccccc1Nc1nc(Nc2ccncc2)ncc1Cl [compound 15, (2-((5-Chloro-2-(pyridin-4-ylamino)pyrimidin-4-yl)amino)phenyl) dimethylphosphine oxide]	110 % of Con.	116 % of Con.
1 to 10	1 to 10	CP(C)(=O)c1ccccc1Nc1nc(Nc2ccc3[nH]ncc3c2)ncc1Cl [compound 66, (2-((2-((1H-Indazol-5-yl)amino)-5-chloropyrimidin-4-yl)amino)phenyl)dimethylphosphine oxide]	22 % of Con.	31 % of Con.
1 to 10	1 to 10	CP(C)(=O)c1ccccc1Nc1nc(Nc2ccc3[nH]nc(-c4ccncc4)c3c2)ncc1Cl [compound 104, (2-((5-Chloro-2-((3-(pyridin-4-yl)-1H-indazol-5-yl)amino)pyrimidin-4-yl)amino)phenyl)dimethylphosphine oxide]	11 % of Con.	30 % of Con.
10 to 100	1 to 10	CP(C)(=O)c1ccccc1Nc1nc(Nc2ccc3[nH]nc(-c4ccc(OC(F)(F)F)cc4)c3c2)ncc1Cl [compound 110, (2-((5-Chloro-2-((3-(4-(trifluoromethoxy)phenyl)-1H-indazol-5-yl)amino)pyrimidin-4-yl)amino)phenyl)dimethylphosphine oxide]	12 % of Con.	24 % of Con.
1 to 10	1 to 10	Cc1cc2cc(Nc3ncc(Cl)c(Nc4ccccc4P(C)(C)=O)n3)ccc2[nH]1 [compound 69, (2-((5-Chloro-2-((2-methyl-1H-indol-5-yl)amino)pyrimidin-4-yl)amino)phenyl)dimethylphosphine oxide]	23 % of Con.	29 % of Con.
1 to 10	1 to 10	CCCn1cc(-c2n[nH]c3ccc(Nc4ncc(Cl)c(Nc5ccccc5P(C)(C)=O)n4)cc23)cn1 [compound 95, (2-((5-Chloro-2-((3-(1-propyl-1H-pyrazol-4-yl)-1H-indazol-5-yl)amino)pyrimidin-4-yl)amino)phenyl)dimethylphosphine oxide]	19 % of Con.	39 % of Con.
1 to 10	1 to 10	CP(C)(=O)c1ccccc1Nc1nc(Nc2cnc3[nH]nc(-c4cccnc4F)c3c2)ncc1Cl [compound 98, (2-((5-Chloro-2-((3-(2-fluoropyridin-3-yl)-1H-pyrazolo[3,4-b]pyridin-5-yl)amino)pyrimidin-4-yl)amino)phenyl)dimethylphosphine oxide]	10 % of Con.	27 % of Con.
10 to 100	1 to 10	CP(C)(=O)c1ccccc1Nc1nc(Nc2ccc3[nH]nc(-c4ccc(S(C)(=O)=O)cc4)c3c2)ncc1Cl [compound 114, (2-((5-Chloro-2-((3-(4-(methylsulfonyl)phenyl)-1H-indazol-5-yl)amino)pyrimidin-4-yl)amino)phenyl)dimethylphosphine oxide]	33 % of Con.	68 % of Con.
10 to 100	1 to 10	COc1ccc(-c2n[nH]c3ccc(Nc4ncc(Cl)c(Nc5ccccc5P(C)(C)=O)n4)cc23)cc1F [compound 109]	25 % of Con.	53 % of Con.
1 to 10	1 to 10	CP(C)(=O)c1ccccc1Nc1nc(Nc2ccc3[nH]nc(Br)c3c2)ncc1Cl [compound 67, (2-((2-((3-Bromo-1H-indazol-5-yl)amino)-5-chloropyrimidin-4-yl)amino)phenyl)dimethylphosphine oxide]	25 % of Con.	33 % of Con.
1 to 10	1 to 10	CP(C)(=O)c1ccccc1Nc1nc(Nc2ccc3ncsc3c2)ncc1Cl [compound 11, (2-((2-(Benzo[d]thiazol-6-ylamino)-5-chloropyrimidin-4-yl)amino)phenyl)dimethylphosphine oxide]	27 % of Con.	28 % of Con.
